{
  "source": "patent US8969622B2",
  "about": "“Dendritic molecular intracellular transporters and methods of making and using same” (Vanderbilt University, priority 2006, dated 2015)",
  "system": "human microvascular endothelial cells (HMEC)",
  "test": "Internalization into human microvascular endothelial cells (HMEC), temperature effect and controls",
  "type": "cell-based",
  "conditions": "10 uM, 60 min, 37° C.",
  "description": "The human microvascular endothelial cells (HMEC) cells were incubated with conjugates (10 uM) for 2.5 min at 4° C. or at 37° C.\nThe HMEC cells were incubated with conjugates (1 uM) for 30 min at 4° C. or at 37° C.\n(b) The HMEC cells were incubated with Boc-protected guanidinylated FD-2 (10 uM) for 60 min at 37° C.\nInternalization of FD-1 and FD-2 in mammalian cells was assessed using two different cell lines and a previously described method [Futaki, S.; Nakase, I.; Suzuki, T.; Youjun, Y.; Sugiura, Y. Biochemistry 2002, 41, 7925.] with NIH-3T3 fibroblasts and HMEC (human microvascular endothelial cells) and a Zeiss LSM 510 confocal microscope. […] [Futaki, S.; Nakase, I.; Suzuki, T.; Youjun, Y.; Sugiura, Y. Biochemistry 2002, 41, 7925.; Vivès, E.; Brodin, P.; Lebleu, B. J. Biol. Chem. 1997, 272, 16010.] Furthermore, the extent of internalization increased in an incubation time-dependent manner, and it was observed that after just 10 min, the fluorescence intensity of cells treated with FD-2 was near saturation. […] Without wishing to be bound by theory, it is believed that the length of the spacer at the terminal generation of the dendrimer can not only control the uptake rate, [Wender, P. A.; Kreider, E.; Pelkey, E. T.; Steinman, L.; Rothbard, J. B.; VanDeusen, C. L. Org. Lett. 2005, 7, 4815.] but also regulate the subcellular localization of the molecule and its putative cargo. […]",
  "data": [
    {"substance": "fluorescein isothiocyanate [free FITC]", "values": [
      {"measurement": "fluorescence of treated cells (control experiments)", "result": "no"}
    ]}
  ]
}
